In brackets after ≈: the same amount, converted by molar mass.

Broadly, the ED50 is the dose that gives a 50% effect, or the effect in half of the subjects. A high value points to a need for a large dose.

Assay [1] has as its system Streptococcus agalactiae CMX 508. The assay can be described thus: In vitro antibacterial activity, agar dilution MIC. In kind it is cell-based. As to conditions: CMX508, S. agalactiae CMX 508, Brain Heart Infusion agar, 20-24 hours, read-out: MIC. As for the experimental part:
(§1) The antimicrobial spectra of a number of compounds of the invention were tested by the following method:
(§2) Twelve petri dishes containing successive aqueous dilutions of the test compound mixed with 10 ml of sterilized Brain Heart Infusion agar (Difco 0418-01-5) are prepared. Each plate is inoculated with 1:100 (or 1:10 for slow growing strains, primarily Micrococcus and Streptococcus) dilutions of up to 32 different microorganisms, using a Steers replicator block The inoculated plates are incubated at 35°-37° C. for 20-24 hours. In addition, a control plate, using BHI agar containing no test compound, is prepared and incubated at the beginning and end of each test.
(§3) An additional plate containing a compound having known susceptibility patterns for the organisms being tested and belonging to the same antibiotic class as the test compound is also prepared and incubated as a further control, as well as to provide test-to-test comparability. Erythromycin A was used for this purpose.
(§4) After incubation, each disk is read. The MIC is defined as the lowest concentration of drug yielding no growth, a slight haze, or sparsely isolated colonies on the inoculum spot as compared to the growth control.
On the technique in general: In agar dilution, organisms are placed on agar that contains the substance at set levels.

Assay [2] deals with Streptococcus pyogenes 2548 INDUC. The assay can be described thus: In vitro antibacterial activity, agar dilution MIC. In kind it is cell-based. As to conditions: S. pyogenes 2548 INDUC, Brain Heart Infusion agar, 20-24 hours, read-out: MIC. As to the method: as §1, §2, §3, §4
Assay [3] deals with Staphylococcus aureus NCTC 10649. The assay can be described thus: In vitro antibacterial activity, agar dilution MIC. In kind it is cell-based. Particulars: NCTC10649, S. aureus NCTC 10649, Brain Heart Infusion agar, 20-24 hours, read-out: MIC. As for the experimental part:
as §1, §2, §3, §4

For a further assay, the system named is Escherichia coli H560. The assay can be described thus: In vitro antibacterial activity, agar dilution MIC. In kind it is cell-based. As to conditions: E. coli H560, Brain Heart Infusion agar, 20-24 hours, read-out: MIC. As to the method:
as §1, §2, §3, §4

The test system of another assay is Escherichia coli SS. The assay can be described thus: In vitro antibacterial activity, agar dilution MIC. In kind it is cell-based. Particulars: read-out: MIC. As for the experimental part:
as §1, §2, §3, §4

The next assay concerns Staphylococcus aureus 45. The assay can be described thus: In vitro antibacterial activity, agar dilution MIC. In kind it is cell-based. Particulars: S. aureus 45, Brain Heart Infusion agar, 20-24 hours, read-out: MIC. As to the method:
as §1, §2, §3, §4

In the next assay the test system is Escherichia coli DC-2. Description: In vitro antibacterial activity, agar dilution MIC. As to conditions: DC2. In kind it is cell-based. As for the experimental part:
as §1, §2, §3, §4

Assay [4] has as its system Staphylococcus aureus CMX 553. Description: In vitro antibacterial activity, agar dilution MIC. In kind it is cell-based. As to conditions: CMX553, S. aureus CMX 553, Brain Heart Infusion agar, 20-24 hours, read-out: MIC. As to the method:
as §1, §2, §3, §4

In assay [5] the test system is Micrococcus luteus ATCC 9341. Description: In vitro antibacterial activity, agar dilution MIC. In kind it is cell-based. Particulars: ATCC9341, M. luteus ATCC 9341, Brain Heart Infusion agar, 20-24 hours, read-out: MIC. As to the method:
as §1, §2, §3, §4

The test system of the next assay is Escherichia coli Juhl. The assay can be described thus: In vitro antibacterial activity, agar dilution MIC. In kind it is cell-based. As for the experimental part: as §1, §2, §3, §4
In assay [6] the test system is Staphylococcus aureus CMX 686B. The assay can be described thus: In vitro antibacterial activity, agar dilution MIC. As to conditions: CMX686B, S. aureus CMX 686B, Brain Heart Infusion agar, 20-24 hours, read-out: MIC. In kind it is cell-based. As for the experimental part:
as §1, §2, §3, §4

Assay [7] has as its system Enterococcus faecium ATCC 8043. Description: In vitro antibacterial activity, agar dilution MIC. In kind it is cell-based. Particulars: ATCC8043, read-out: MIC. As for the experimental part:
as §1, §2, §3, §4

Assay [8] deals with Staphylococcus aureus ATCC 6538P. The assay can be described thus: In vitro antibacterial activity, agar dilution MIC. In kind it is cell-based. Particulars: ATCC6538P, S. aureus ATCC 6538P, Brain Heart Infusion agar, 35-37° C., 20-24 hours, read-out: MIC. As for the experimental part:
as §1, §2, §3, §4

For assay [9], the system named is Staphylococcus aureus CMX 503A. The assay can be described thus: In vitro antibacterial activity, agar dilution MIC. In kind it is cell-based. Particulars: CMX503A, S. aureus CMX 503A, Brain Heart Infusion agar, 20-24 hours, read-out: MIC. As to the method:
as §1, §2, §3, §4

The test system of assay [10] is Streptococcus pyogenes 930 CONST. Description: In vitro antibacterial activity, agar dilution MIC. Particulars: 930CONST. In kind it is cell-based. As for the experimental part: as §1, §2, §3, §4
For assay [11], the system named is Staphylococcus aureus 642A. The assay can be described thus: In vitro antibacterial activity, agar dilution MIC. In kind it is cell-based. Particulars: S. aureus 642A, Brain Heart Infusion agar, 20-24 hours, read-out: MIC. As to the method:
as §1, §2, §3, §4

Assay [12] has as its system Staphylococcus aureus A5177. The assay can be described thus: In vitro antibacterial activity, agar dilution MIC. In kind it is cell-based. Particulars: S. aureus A5177, Brain Heart Infusion agar, 20-24 hours, read-out: MIC. As for the experimental part:
as §1, §2, §3, §4

Assay [13] relates to Streptococcus bovis A5169. The assay can be described thus: In vitro antibacterial activity, agar dilution MIC. In kind it is cell-based. As to conditions: read-out: MIC. As to the method: as §1, §2, §3, §4
Assay [14] relates to Micrococcus luteus ATCC 4698. Description: In vitro antibacterial activity, agar dilution MIC. As to conditions: ATCC4698, M. luteus ATCC 4698, Brain Heart Infusion agar, 20-24 hours, read-out: MIC. In kind it is cell-based. As for the experimental part: as §1, §2, §3, §4
Assay [15] relates to Staphylococcus epidermidis 3519. Description: In vitro antibacterial activity, agar dilution MIC. In kind it is cell-based. Particulars: S. epidermidis 3519, Brain Heart Infusion agar, 20-24 hours, read-out: MIC. As to the method: as §1, §2, §3, §4
The test system of assay [16] is Streptococcus pyogenes EES61. Description: In vitro antibacterial activity, agar dilution MIC. In kind it is cell-based. As to conditions: S. pyogenes EES61, Brain Heart Infusion agar, 20-24 hours, read-out: MIC. As to the method: as §1, §2, §3, §4
Assay [17] relates to Staphylococcus aureus 45 RAR 2. The assay can be described thus: microbe, parasite or virus in culture. In kind it is cell-based. As to conditions: 45RAR2. As for the experimental part: as §1, §2, §3, §4
Assay [18] relates to Staphylococcus aureus (NCTC 10649). Description: In-vivo mouse protection assay (acute mouse protection test). More on the design: species or system Swiss albino mice. Particulars: 168 h. As to the method: (§5) The acute mouse protection test is conducted on ten mice with each of three levels of drug. Mouse mortality is used to calculate an ED50 value, i.e., the dose of drug required to protect 50% of the test animals against death due to the inoculum challenge.
(§6) The acute mouse protection test is conducted on female, Swiss albino mice, 18-20 grams in weight. […] To check the potency of the inoculum, a titration of the indicated test organism is carried out in control animals. The treatment group of animals is dosed with the test compound at 1 and 5 hours post infection and observed for 7 days. The ED50 values are calculated using the mortality data collected.

Assay [19] relates to Streptococcus pyogenes C-203. The assay is described as above. More on the design: species or system Swiss albino mice. As to conditions: 168 h. As for the experimental part: as §5, §6
Assay [20] concerns Streptococcus pneumoniae (6303). The assay is described as above. As to conditions: 168 h. The arrangement: species or system Swiss albino mice. As to the method: as §5, §6

Regarding `CC[C@H]1OC(=O)[C@H](C)[C@@H](O[C@H]2C[C@@](C)(OC)[C@H](N)[C@H](C)O2)[C@H](C)[C@@H](O[C@@H]2O[C@H](C)C[C@H](N(C)C)[C@H]2O)[C@](C)(O)C[C@@H](C)[C@@H](N2CCCCC2)[C@H](C)[C@@H](O)[C@]1(C)O` [Example 32], the MIC in [1] is 0.1 µg/mL (≈ 0.125 µM); in assay [2], 6.2 µg/mL (≈ 7.73 µM); in assay [3], 1.56 µg/mL (≈ 1.94 µM); with Escherichia coli H560 it was 3.1 µg/mL (≈ 3.86 µM); with Escherichia coli SS, 0.2 µg/mL (≈ 0.249 µM); with Staphylococcus aureus 45, 0.78 µg/mL (≈ 0.972 µM). Moreover, the MIC was determined as 12.5 µg/mL (≈ 15.6 µM) in the assay on Escherichia coli DC-2; 0.78 µg/mL (≈ 0.972 µM) in assay [4]; 0.05 µg/mL (≈ 0.0623 µM) in assay [5]; 25 µg/mL (≈ 31.2 µM) with Escherichia coli Juhl; 0.78 µg/mL (≈ 0.972 µM) in assay [6]; 0.2 µg/mL (≈ 0.249 µM) in assay [7]. Further, the MIC in assay [8] is 0.78 µg/mL (≈ 0.972 µM); in assay [9], 0.39 µg/mL (≈ 0.486 µM); in assay [10], above 100 µg/mL; in assay [11], 1.56 µg/mL (≈ 1.94 µM); in assay [12], 6.2 µg/mL (≈ 7.73 µM); in assay [13] it was 0.02 µg/mL (≈ 0.0249 µM). Further, the MIC in assay [14] was determined as 0.78 µg/mL (≈ 0.972 µM); in assay [15], 0.78 µg/mL (≈ 0.972 µM); in assay [16], 0.1 µg/mL (≈ 0.125 µM); in assay [17] it was 1.56 µg/mL (≈ 1.94 µM).
As to `CC[C@H]1OC(=O)[C@H](C)[C@@H](O[C@H]2C[C@@](C)(OC)[C@@H](O)[C@H](C)O2)[C@H](C)[C@@H](O[C@@H]2O[C@H](C)C[C@H](N(C)C)[C@H]2O)[C@](C)(O)C[C@@H](C)C(=O)[C@H](C)[C@@H](O)[C@]1(C)O` [erythromycin], the ED50 in assay [18] (NCTC10649, po) came out at 98 mg/kg; in assay [18] (NCTC10649, sc), 20 mg/kg; in [19] (C203, po) it was 12 mg/kg; in [19] (C203, sc), 1.8 mg/kg; in assay [20] (po) it was 21.5 mg/kg; in [20] (sc) it was 0.9 mg/kg.

The values are drawn from patent publication US5075289A, “9-R-azacyclic erythromycin antibiotics” (priority 1988, dated 1991).
